Reference: US11723948B2, “Method for treating and prognosing cancer” (INSERM (INSTITUT NATIONAL DE LA SANTE ET DE LA RECHERCHE …, priority 2015, dated 2023)

Tests used:
PCTC #1 = assay: ELISA of global DNA methylation (5-methylcytosine); assay type: cell-based, human; details: PCTC #1 treated during 30 days
Text: DNA was extracted by using the QiaAmp DNA mini Kit (Qiagen, France). Next, global DNA methylation was estimated by quantifying the presence of 5-methylcytosine using Methylamp Global DNA methylation Quantification kit (Euromedex-Epigentek, France) according to the manufacturers's instructions.
The analysis of all interactions being impossible, we postulated that if P1 inhibited a large number of DNMT3A/D3A-BP interactions, an hypomethylation phenotype would be observable. To observe the putative P1-induced DNA hypomethylation, PCTC #1 were treated during 30 days with P1 (data not shown). Other DNMT inhibitors (5-aza-2-deoxycytidine (5-aza), theaflavin 3,3 digallate (a DNMT3A inhibitor, hereafter called TFD), or peptides (UP peptide, a peptide inhibiting the DNMT1/PCNA/UHRF1 interactions)) were also used as control conditions.

MCF-7 cells = details: non-invasive breast cancer cell line MCF-7; cited from earlier work
ZR-75-1 = details: non-invasive breast cancer cell line ZR-75-1; cited from earlier work
DNMT3A/HDAC1 interaction = molecular target: T1, DNMT3A/HDAC1 interaction (Homo sapiens, UniProt Q13547); assay: P-LISA in PCTC #1, DNMT3A/HDAC1; assay type: cell-based
T1 construct: endogenous in cells; host or cells: PCTC #1 (primary cultured glioblastoma tumor cells)
Experimental: (§1) Cells were cultured for 24 h on cover slip. Cells were then fixed with 4% paraformaldehyde in PBS pH7.4 for 15 min at room temperature. Permeabilization is performed with PBS containing 0.5% Triton X-100 for 20 min at room temperature. Blocking, staining, hybridization, ligation, amplification and detection steps were realized according to manufacturer's instructions (Olink Bioscience, Sweden). All incubations were performed in a humidity chamber. Amplification and detection steps were performed in dark room. Fluorescence was visualized by using the Axiovert 200M microscopy system (Zeiss, Le Pecq, France) with ApoTome module (X63 and numerial aperture 1.4). Preparations were mounted by using ProLong Gold antifade reagent with DAPI (Life Technologies, France). Pictures acquisition was realized in structured illumination microscopy. […] Finally, the images were analyzed by using the freeware “BlobFinder” available for download from www.cb.uu.se/˜amin/BlobFinder. […]
(§2) For electroporation, NLS sequence was added to peptides. […] Electroporation efficiency for each cell line was initially determined by flow cytometry by uptake of the fluorescent dye, lucifer yellow (Sigma, France). […]
(§3) P1 was designed to inhibit the DNMT3A/ISGF3γ interactions. […] To investigate this point, we analyzed the effect of P1 on the DNMT3A/D3A-BP interactions of interest. […]

[1] = system: PCTC-GBM glioma cells having high level of DNMT3A/ISGF3γ interactions; assay: Established subcutaneous glioma tumors in swiss nude mice; assay type: in vivo; details: treatment from tumor volume 100 mm^3, after 3 weeks of treatment; FIG. 3B
Experimental: A. Design of the experiment. […] Then, mice were treated with indicated treatment. D: day, w: week, it: intra-tumoral, ip: Intraperitoneal.
B. Graph illustrates the impact of the 4 considered treatments on tumor weight of established tumors. Open circles represent mice. Black circles represent the average±standard deviation obtained for each treatment. p values were obtained by performing a t test.
Cultured cells were harvested by trypsinization, washed and resuspended in saline buffer. Cell suspensions were injected s.c. as 2.106 cells in 0.05 ml of PBS with equal volume of matrigel matrix (Becton Dickinson, France) in the flank of 7/8-week-old Nude NMRI-nu female mice (Janvier, France). After tumor establishment, mice were treated with temozolomide and/or peptides via intra-tumor injection (it). To obtain tumor weigh, each tumor was surgically removed and is weighed. All experimental procedures using animals were realized in accordance with the guidelines of Institutional Animal Care and the French National Committee of Ethics.
Standard anti-GBM treatment using temozolomide as chemotherapeutic agent, we next investigated the effect of a treatment associating P1 peptide with TMZ in a swiss nude mice model of established tumors.

[2] = system: primary cultured tumor cells (PCTC) from GBM; assay: Temozolomide+irradiation-induced cell death (trypan blue); assay type: cell-based, human; details: temozolomide 25 μM and irradiation 2 Gy
Experimental: Percentages of cell death were evaluated by using a Trypan Blue Stain 0.4%, and the Countess® Automated Cell Counter (Life Technologies, France). Cell death was induced using temozolomide (25 μM) and irradiation (2 Gy) such as previously described.
To evaluate the impact of the P1-induced disruption of the DNMT3A/ISGF3γ interactions on the sensitivity of apoptosis induced by a therapeutic treatment, we measured the percentage of temozolomide+irradiation-induced cell death since temozolomide (TMZ) and irradiation are conjugated in anti-GBM treatment [Cheray M et al., 2013 and Louis D et al., 2007]. […] Thus, we conclude that P1 acts as a sensitizer of the temozolomide+irradiation-induced cell death.

[3] = system: primary cultured tumor cells (PCTC) from GBM; assay: Proliferation assay, doubling time; assay type: cell-based, human; details: counted every 24 h over 120 h
Experimental: Doubling time (i.e. the period of time required for a quantity to double in size) was calculated by using the Doubling Time Online Calculator website (Roth V. 2006, http://www.doubling-time.com/compute.php) and counting the proliferation of […] over 120 hours. Cell number was determined, every 24 h over 120 h, using the Countess® Automated Cell Counter (Life Technologies, France).
To estimate the impact of the P1-induced disruption of DNMT3A/ISGF3γ interactions on proliferation, we calculated the doubling time.

DNMT3A/AP2γ interaction = assay: P-LISA in PCTC #1, DNMT3A/AP2γ; assay type: cell-based, human
Experimental: as §1, §2, §3

MGMT = assay: qMSP of MGMT methylation; assay type: cell-based, human; details: cells treated with peptide
Text: In glioma, MGMT methylation is associated with a good responsive of anti-glioma treatment including TMZ and irradiation [Esteller M et al., 2000 and Hegi M et al., 2005].

DNMT3A/GATA1 interaction = molecular target: T2, DNMT3A/GATA1 interaction (Homo sapiens, UniProt P15976); assay: P-LISA in PCTC #1, DNMT3A/GATA1; assay type: cell-based
T2 construct: endogenous in cells; host or cells: PCTC #1 (primary cultured glioblastoma tumor cells)
Experimental: as §1, §2, §3

[4] = molecular target: T3, DNMT3A/ISGF3γ interaction (Homo sapiens, UniProt Q00978); assay: Competitive pull-down assay of the DNMT3A/ISGF3γ interaction; assay type: binding; details: for inhibition of the DNMT3A/ISGF3γ interaction: peptides pre-incubated 1 h at 37° C., FIG. 2A
T3 construct: GST
T3 sequence (Q00978 1-393): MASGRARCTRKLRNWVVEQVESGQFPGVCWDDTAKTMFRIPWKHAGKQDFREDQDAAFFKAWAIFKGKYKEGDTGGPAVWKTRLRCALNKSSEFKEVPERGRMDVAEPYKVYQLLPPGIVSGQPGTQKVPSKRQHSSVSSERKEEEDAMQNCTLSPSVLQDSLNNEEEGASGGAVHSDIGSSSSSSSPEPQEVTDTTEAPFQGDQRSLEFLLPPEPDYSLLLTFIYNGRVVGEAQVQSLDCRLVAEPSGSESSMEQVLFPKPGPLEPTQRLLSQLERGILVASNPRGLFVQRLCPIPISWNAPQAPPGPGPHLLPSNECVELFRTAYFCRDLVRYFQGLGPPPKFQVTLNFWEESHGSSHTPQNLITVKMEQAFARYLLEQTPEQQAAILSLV
Experimental: Pull-down assays were performed by using the GST/His Tagged-Protein Interaction Pull-Down Kits (Thermo Scientific, France). Briefly, 100 μg of bait protein were immobilized on column via an incubation at 4° C. for 1 h with gentle mixing. After washing, 1 μg of prey protein was added for 1 h at 4° C. with gentle rocking motion on a rotating platform. After washes and elution, the “bait-prey” interaction was analyzed by SDS-PAGE and Western blot methods. Competitive pull-down experimentations were realized by pre-incubating considered peptides for 1 h at 37° C.
In brief, proteins were size fractionated by sodium dodecyl sulfate-polyacrylamide gel electrophoresis. Proteins were transferred onto nitrocellulose or PVDF membrane. Saturation and blotting were realized by using SNAP I.™ Protein Detection System (Millipore, France). The detection of proteins was performed using ECL™ (Amersham Biosciences, France) and/or SuperSignal west femto Maximum Sensitivity (Thermo Scientific, France) chemilumenescence reagents. The detection of proteins was performed using the FusionX7 Imager (Fisher Scientific, France).

[5] = system: primary cultured tumor cells (PCTC) from GBM; assay: Collagen-based cell invasion assay; design: species or system human; details: 72 h incubation
Experimental: All of the procedures were followed according to the manufacturer's instructions (QCM 24-Well Collagen-Based Cell Invasion Assay, Millipore, France). In brief, 200 μl serum-free medium containing 2×10^5 cells were seeded into the invasion chamber and placed into the 24 well plate containing 500 μl complete medium. After 72 h incubation at 37° C., media was removed from the chamber, and cells were stained by putting the chamber in staining solution for 20 min at room temperature. Non-invaded cells were carefully removed from the top-side of the chamber. Stained chamber was inserted into a clean well containing 200 μl of extraction buffer for 15 min at room temperature. 100 μl extracted stained solution from the chamber was transferred into the 96 well plate and optical density was measured at 560 nm with a spectrophotometer.

[6] = molecular target: T4, DNMT3A/ISGF3γ interactions (Homo sapiens, UniProt Q00978); assay: Proximity Ligation In Situ Assay (P-LISA) in PCTC #1, DNMT3A/ISGF3γ; assay type: cell-based; details: PCTC #1, P-LISA 12 hr after electroporation of peptide
T4 construct: we used a PCTC (named PCTC #1); endogenous in cells; host or cells: PCTC #1 (primary cultured glioblastoma tumor cells)
T4 sequence (Q00978 1-393): T3 sequence (Q00978 1-393)
Experimental: Cells were cultured for 24 h on cover slip. Cells were then fixed with 4% paraformaldehyde in PBS pH7.4 for 15 min at room temperature. Permeabilization is performed with PBS containing 0.5% Triton X-100 for 20 min at room temperature. Blocking, staining, hybridization, ligation, amplification and detection steps were realized according to manufacturer's instructions (Olink Bioscience, Sweden). All incubations were performed in a humidity chamber. Amplification and detection steps were performed in dark room. Fluorescence was visualized by using the Axiovert 200M microscopy system (Zeiss, Le Pecq, France) with ApoTome module (X63 and numerial aperture 1.4). Preparations were mounted by using ProLong Gold antifade reagent with DAPI (Life Technologies, France). Pictures acquisition was realized in structured illumination microscopy. After decovolving (3.5 Huygens Essential software (SVI)), 3D view was obtained by using Amira.4.1.1 program. Finally, the images were analyzed by using the freeware “BlobFinder” available for download from www.cb.uu.se/˜amin/BlobFinder. Thus, we obtained either number of signals per nuclei since nuclei can be automatically identified.
as §2

[7] = system: primary cultured tumor cells (PCTC) from GBM; assay: Migration assay, scratch test; assay type: cell-based, human; details: 24 hours, mitomycin C pre-treatment
Experimental: Cell migration assay was performed using a scratch technique. Cells were plated in 6-well plates at 80-90%, and were treated with 10 μg/ml mitomycin C (Sigma, France) for 2 hours (in order to remove the influence of cell proliferation). Cells were then scratched. Cell migration was monitored by microscopy. The images acquired for each sample were analyzed quantitatively. For each image, distances between one side of scratch and the other were measured. By comparing the images from time 0 to the last time point (24 hours), we obtain the distance of each scratch closure on the basis of the distances that are measured.
Impact of the P1-induced disruption of the DNMT3A/ISGF3γ interactions on migration capability was next estimated by performing a scratch test assay.

T2 sequence (P15976 whole entry): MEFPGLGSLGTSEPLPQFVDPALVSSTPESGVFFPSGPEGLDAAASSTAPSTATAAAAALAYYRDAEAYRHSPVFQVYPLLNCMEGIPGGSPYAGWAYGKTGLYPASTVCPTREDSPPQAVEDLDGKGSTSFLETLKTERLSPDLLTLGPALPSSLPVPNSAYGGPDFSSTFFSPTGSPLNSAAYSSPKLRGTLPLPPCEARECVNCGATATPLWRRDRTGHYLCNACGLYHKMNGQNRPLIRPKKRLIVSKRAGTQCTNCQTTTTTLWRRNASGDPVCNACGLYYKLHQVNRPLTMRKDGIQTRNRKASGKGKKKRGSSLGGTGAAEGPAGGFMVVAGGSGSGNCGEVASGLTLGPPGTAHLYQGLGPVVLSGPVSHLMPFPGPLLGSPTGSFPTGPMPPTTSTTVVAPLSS
T1 sequence (Q13547 whole entry): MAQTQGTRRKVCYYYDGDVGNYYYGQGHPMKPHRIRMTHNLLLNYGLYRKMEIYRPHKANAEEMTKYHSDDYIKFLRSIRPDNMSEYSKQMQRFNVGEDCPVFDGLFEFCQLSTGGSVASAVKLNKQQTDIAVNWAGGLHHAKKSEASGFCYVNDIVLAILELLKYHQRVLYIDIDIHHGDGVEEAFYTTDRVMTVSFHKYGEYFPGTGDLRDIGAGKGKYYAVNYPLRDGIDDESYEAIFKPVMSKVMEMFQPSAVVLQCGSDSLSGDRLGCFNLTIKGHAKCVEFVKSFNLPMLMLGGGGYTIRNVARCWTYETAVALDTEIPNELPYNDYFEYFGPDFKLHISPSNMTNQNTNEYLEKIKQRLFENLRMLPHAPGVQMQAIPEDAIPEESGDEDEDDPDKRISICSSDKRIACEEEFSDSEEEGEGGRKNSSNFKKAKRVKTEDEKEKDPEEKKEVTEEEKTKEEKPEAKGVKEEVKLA

Row | integrity of the DNMT3A/HDAC1 interaction (DNMT3A/HDAC1 interaction) | integrity of the DNMT3A/GATA1 interaction (DNMT3A/GATA1 interaction) | DNMT3A/ISGF3γ interaction with increasing peptide concentration ([4]; increasing concentration of peptide, FIG. 2B) | red dots representing the DNMT3A/ISGF3γ interactions [6] | Compound | global level of 5-methylcytosine (PCTC #1) | invasiveness (MCF-7 cells) | invasiveness (ZR-75-1) | tumor growth (tumor weight/volume) of established tumors [1] | percentage of temozolomide+irradiation-induced cell death [2] | percentage of cell death compared with the other treatment ([2]; P1 versus TDF) | doubling time of cells [3] | integrity of the DNMT3A/AP2γ interaction (DNMT3A/AP2γ interaction) | methylation level of MGMT (MGMT) | inhibition of the DNMT3A/ISGF3γ interaction [4] | cell invasion [5] | cell migration [7]
1 | – | – | – | – | Nc1ncn([C@H]2C[C@H](O)[C@@H](CO)O2)c(=O)n1 [5-aza, 5-aza-2-deoxycytidine] | decreased the global level of DNA methylation | increased the invasiveness | increased the invasiveness | – | – | – | – | – | – | – | – | –
2 | no effect | no effect | decreased | decreased | RPMPRLTFQAGDPYYI (Synthetic P1) | had not effect | – | – | no statistical difference | increased | higher than the one obtained with TDF | no effect | no effect | remains unchanged | inhibited the DNMT3A/ISGF3γ interaction | unmodified the cell invasion characteristic | decreased cell migration
3 | – | – | – | – | RPMPRLTAQAGAPYYI (Synthetic P1mut) [P1^mut, mutated P1 peptide, reference compound] | – | – | – | – | – | – | – | – | – | does not inhibit the DNMT3A/ISGF3γ interaction | – | –
4 | – | – | – | – | O=C(O[C@@H]1Cc2c(O)cc(O)cc2O[C@@H]1c1cc(O)c(=O)c2c(O)c(O)cc([C@H]3Oc4cc(O)cc(O)c4C[C@H]3OC(=O)c3cc(O)c(O)c(O)c3)c2c1)c1cc(O)c(O)c(O)c1 [TFD, theaflavin 3,3 digallate, reference compound] | decreased the global level of DNA methylation | – | – | – | increased | – | no effect | – | – | – | promoted the cell invasion | had no effect on cell migration
